According to patent US20150004175A1, “Compositions and Methods for Reducing CTL Exhaustion” (priority 2011, published 2015):

Experiments:
[1] = test system: LCMV-CL13; design: species or system mice (C57BL/6); conditions: mouse, in vivo
[2] = test system: LCMV-CL13; design: species or system mice (C57BL/6); conditions: mouse, in vivo; remark: listed apart in the source
[3] = test system: P14+ CD8 T cells; assay type: cell-based, mice

Row | SMILES | number of virus-specific CD8+ T cells [1] | INFγ, TNFα, and IL-2 production by CD8+ T cells stimulated with LCMV peptides GP276, GP33 and NP396 [2] | inhibition of TNF-α and IL-2 production [3] | production of IFN-γ, TNF-α and IL-2 (all three cytokines) [3] | effect on cytokine production ([3]; EP2/4 DKO P14+ CD8 T cells, 40 μM PGE2)
1 | CC(C)Oc1ccc2c(=O)c3cc(C(=O)O)ccc3oc2c1 [AH6809] | increased | increased | – | – | –
2 | CCc1nc2c(C)nc(C)cc2n1-c1ccc(CCNC(=O)NS(=O)(=O)c2ccc(C)cc2)cc1 [CJ-23423] | increased | increased | – | – | –
3 | CCCCc1nn(-c2ccccc2C(F)(F)F)c(=O)n1Cc1ccc(-c2ccccc2S(=O)(=O)NC(=O)c2sccc2C)cc1 [L161,982] | increased | increased | – | – | –
4 | CCCCC[C@H](O)/C=C/[C@H]1[C@H](O)CC(=O)[C@@H]1C/C=C\CCCC(=O)O [PGE2] | – | – | 75-80% | suppressed | very little effect
5 | COc1ccc2cc(OCC3(C(=O)O)CN(C(=O)c4ccc(F)cc4)C3)ccc2c1 [PF-04418948] | increased | increased | – | – | –
